Test results reported in patent US6756362B2, “Methods and compositions based on inhibition of cell invasion and fibrosis by anionic polymers” (priority 1991, dated 2004).

What was measured:
Design in all cases: key: Bands that were completely inhibitory to cell adhesion, migration and/or invasion were evaluated as (−); those allowing limited cell adhesion, migration and/or invasion (+/−); those permissive to cell adhesion, migration and/or invasion as (+)
[1] = tested on: MCG-28 young immortalized mouse astrocyte; experiment: Stripe assay, MCG-28; type: cell-based; conditions: MCG28; for DS-PG Effect on Adhesion, Migration and Invasion: 2 days following plating
Method: (§1) Cell lines. Murine 3T3 fibroblast (NIH), rat C6 glioma (Paganetti et al., 1988, J. Cell Biol. 107:2281) and MCG-28 young immortalized mouse astrocyte (a murine neonatal astrocyte line immortalized with SV-40) were grown in medium composed of Dulbecco's modified Eagle medium (DMEM), 10% fetal calf serum (Gibco Laboratories), and penicillin G/streptomycin (100 units/ml, 100 μg/ml respectively, Gibco Laboratories). For the stripe assay, confluent plates were disaggregated with 0.05% trypsin, 0.53 mM EDTA (Gibco Laboratories) and seeded at 200,000 cells/ml (3 ml/plate). For the cell adhesion assays, confluent cultures were disaggregated with 0.03% EDTA and plated in a 96-well microtiter plate at 20,000-100,000 cells per well. PC12 cells, a pheochromocytoma cell line (Green L. A. & Tischler A. S., 1976, Proc. Natl. Acad. Sci. U.S.A. 73:2424), were grown in medium containing Roswell Park Memorial Institute (RPMI) medium 1640 (Gibco Laboratories), 10% horse serum, 5% fetal calf serum (FCS), and penicillin G/streptomycin (100 units/ml, 100 μg/ml respectively, Gibco Laboratories). The cells were disaggregated with 0.03% EDTA and plated in a 96-well microtiter plate at 3,000 cells per well.
(§2) The stripe assay was performed essentially as described by Snow et al. (1990, Exp. Neural. 309:111-130). Tissue culture Petri dishes (Falcon, 60 mm) were precoated with 0.5 ml of a mixture of 5 cm^2 section nitrocellulose (Schleicher & Schuell, Type BA 85) dissolved in 6 ml methanol, and air dried in a laminar flow hood. Cellulose filter paper (Whatman #1) was cut into 12×0.35 mm strips with a McIlwain tissue chopper (The Mickle Laboratory Engineering Co., LTD). A strip of filter paper was soaked in 20 μl of a solution of DS-PG or KS/CS-PG and LN at given concentration, blotted onto the nitrocellulose-coated dish for 30 sec. and removed. The test solution was allowed to air dry. This process was repeated several times creating clearly defined, equally spaced parallel bands of uniform width on the plates. A thin layer of 0.1 or 1 mg/ml LN was then spread evenly across the bands with a bent glass Pasteur pipet, and covered with culture medium (FIG. 1).
(§3) Plates were seeded with cell suspensions of 2.0×10^5 cells/ml or 4-10 DRG explants. The cultures were assessed for degree of adhesion, migration and/or invasion of the DS-PG or KS/CS-PG bands over a period of up to 7 days using a Leitz Fluovert microscope.
(§4) Bands that were completely inhibitory to cell adhesion, migration and/or invasion were evaluated as (−), those allowing limited cell adhesion, migration and/or invasion (+/−), and those permissive to cell adhesion, migration and/or invasion as (+). cell adhesion was defined as the initial interaction between the cell surface and the substratum which results in cell attachment and spreading. Cell migration was operationally defined as cell movement within the same substratum, and cell invasion was operationally defined as cell movement from one type of substratum to another type of substratum.

[2] = tested on: rat meningeal fibroblasts (RMF); experiment: Stripe assay, RMF; type: cell-based; conditions: for DS-PG Effect on Adhesion, Migration and Invasion: 2 days following plating
Method: Primary Cell Cultures. Primary cultures of rat meningeal fibroblasts (RMF) were obtained from P-3 rat pups. The tissue was removed from the animals and transferred to Leibovitz's L-15 with L-glutamine medium. The tissue was then cut into small pieces with a scalpel blade, enzymatically dissociated with 0.25% trypsin in Ca^2+/Mg^2+ free Hank's balanced salt solution (CMF-HBSS, Gibco Laboratories) for 20 minutes at 37° C., and mechanically triturated. The cells were rinsed with DMEM plus 10% FCS, concentrated by centrifugation and subsequently diluted in DMEM with 10% FCS for plating at 5.0×10^6 cells per 75 cm^2 flask. Adult rat sciatic nerve fibroblasts (RSF) were obtained by explantation of 1 mm sections of adult rat sciatic nerve.
as §2, §3, §4

Murine 3T3 fibroblast = experiment: Stripe assay, 3T3; type: cell-based, mouse; conditions: for Effect of KS/CS-PG on Cell Migration / DS-PG Effect on Adhesion, Migration and Invasion: 3T3; for DS-PG Effect on Adhesion, Migration and Invasion: 2 days following plating
Method: as §1, §2, §3, §4

[3] = 0.25 mg/ml KS/CS-PG + LN stripes
[4] = 0.5 mg/ml KS/CS-PG + LN stripes
[5] = 1.0 mg/ml KS/CS-PG + LN stripes
[6] = 2.7 mg/ml KS/CS-PG + LN stripes
[7] = 0.1 mg/ml DS-PG + 20 μg/ml LN stripes
[8] = 0.2 mg/ml DS-PG + 20 μg/ml LN stripes
[9] = 0.4 mg/ml DS-PG + 20 μg/ml LN stripes
[10] = 0.8 mg/ml DS-PG + 20 μg/ml LN stripes

“keratan sulfate/chrondroitin sulfate-proteoglycans [KS/CS-PG]” was tested, and the “Effect of KS/CS-PG on Cell Migration” value [1, 3] was “+”, the “Effect of KS/CS-PG on Cell Migration” value [1, 4] was “+” and the “Effect of KS/CS-PG on Cell Migration” value [1, 5] was “+”. The “Effect of KS/CS-PG on Cell Migration” value [1, 6] was “+/−”, the “Effect of KS/CS-PG on Cell Migration” value ([2]; 0.12 mg/ml KS/CS-PG + LN stripes) was “+” and the “Effect of KS/CS-PG on Cell Migration” value [2, 3] was “+/−”. The “Effect of KS/CS-PG on Cell Migration” value [2, 4] was “+/−”, the “Effect of KS/CS-PG on Cell Migration” value [2, 5] was “+/−” and the “Effect of KS/CS-PG on Cell Migration” value [2, 6] was “−”. For the same substance, the “Effect of KS/CS-PG on Cell Migration” value (Murine 3T3 fibroblast; [3]) was “+”, the “Effect of KS/CS-PG on Cell Migration” value (Murine 3T3 fibroblast; [4]) was “+/−” and the “Effect of KS/CS-PG on Cell Migration” value (Murine 3T3 fibroblast; [5]) was “+/−”. The “Effect of KS/CS-PG on Cell Migration” value (Murine 3T3 fibroblast; [6]) was “−”.
With Dermatan sulfate proteoglycan [DS-PG] the “DS-PG Effect on Adhesion, Migration and Invasion” value (from here on “DS-PG Effect on Adhesion”) [1, 7] was “+”, the “DS-PG Effect on Adhesion” value [1, 8] was “+” and the “DS-PG Effect on Adhesion” value [1, 9] was “−”. The “DS-PG Effect on Adhesion” value [1, 10] was “−”, the “DS-PG Effect on Adhesion” value [2, 7] was “+” and the “DS-PG Effect on Adhesion” value [2, 8] was “+/−”. The “DS-PG Effect on Adhesion” value [2, 9] was “−”, the “DS-PG Effect on Adhesion” value [2, 10] was “−” and the “Time Dependent Effect of DS-PG on 3T3 Cell Migration” value (“Time Dependent Effect of DS-PG” below) (Murine 3T3 fibroblast; 0.1 mg/ml (1.25 μM), 1d) was “+”. For the same substance, the “Time Dependent Effect of DS-PG” value (Murine 3T3 fibroblast; 0.1 mg/ml (1.25 μM), 2d) was “+”, the “Time Dependent Effect of DS-PG” value (Murine 3T3 fibroblast; 0.1 mg/ml (1.25 μM), 3d) was “+” and the “Time Dependent Effect of DS-PG” value (Murine 3T3 fibroblast; 0.1 mg/ml (1.25 μM), 4d) was “+”. The “Time Dependent Effect of DS-PG” value (Murine 3T3 fibroblast; 0.1 mg/ml (1.25 μM), 7d) was “+”, the “DS-PG Effect on Adhesion” value (Murine 3T3 fibroblast; [7]) was “+” and the “Time Dependent Effect of DS-PG” value (Murine 3T3 fibroblast; 0.2 mg/ml (2.5 μM), 1d) was “+/−”. For the same substance, the “Time Dependent Effect of DS-PG” value (Murine 3T3 fibroblast; 0.2 mg/ml (2.5 μM), 2d) was “+/−”, the “Time Dependent Effect of DS-PG” value (Murine 3T3 fibroblast; 0.2 mg/ml (2.5 μM), 3d) was “+/−” and the “Time Dependent Effect of DS-PG” value (Murine 3T3 fibroblast; 0.2 mg/ml (2.5 μM), 4d) was “+/−”. The “Time Dependent Effect of DS-PG” value (Murine 3T3 fibroblast; 0.2 mg/ml (2.5 μM), 7d) was “+”, the “DS-PG Effect on Adhesion” value (Murine 3T3 fibroblast; [8]) was “+/−” and the “Time Dependent Effect of DS-PG” value (Murine 3T3 fibroblast; 0.4 mg/ml (5 μM), 1d) was “−”. For the same substance, the “Time Dependent Effect of DS-PG” value (Murine 3T3 fibroblast; 0.4 mg/ml (5 μM), 2d) was “−”, the “Time Dependent Effect of DS-PG” value (Murine 3T3 fibroblast; 0.4 mg/ml (5 μM), 3d) was “−” and the “Time Dependent Effect of DS-PG” value (Murine 3T3 fibroblast; 0.4 mg/ml (5 μM), 4d) was “−”. The “Time Dependent Effect of DS-PG” value (Murine 3T3 fibroblast; 0.4 mg/ml (5 μM), 7d) was “+/−”, the “DS-PG Effect on Adhesion” value (Murine 3T3 fibroblast; [9]) was “−” and the “Time Dependent Effect of DS-PG” value (Murine 3T3 fibroblast; 0.8 mg/ml (10 μM), 1d) was “−”. The “Time Dependent Effect of DS-PG” value (Murine 3T3 fibroblast; 0.8 mg/ml (10 μM), 2d) was “−”, the “Time Dependent Effect of DS-PG” value (Murine 3T3 fibroblast; 0.8 mg/ml (10 μM), 3d) was “−” and the “Time Dependent Effect of DS-PG” value (Murine 3T3 fibroblast; 0.8 mg/ml (10 μM), 4d) was “−”. The “Time Dependent Effect of DS-PG” value (Murine 3T3 fibroblast; 0.8 mg/ml (10 μM), 7d) was “+/−” and the “DS-PG Effect on Adhesion” value (Murine 3T3 fibroblast; [10]) was “−”.
